In article PMC4828713, “New potential binding determinant for hERG channel inhibitors” (Scientific Reports, 2016):

Tests used:
[1] = molecular target: wild type hERG (WT) channels (Homo sapiens, UniProt Q12809); details: pH 7.4
Source text: (§1) For hERG measurements, the oocytes were clamped at a holding potential of −100 mV and depolarized to +20 mV allowing activation and inactivation. […] Channel block was estimated from tail current inhibition.

Y652A-hERG = Y652A-hERG (Homo sapiens, UniProt Q12809, Y652A); details: pH 7.4
Source text: as §1

O=C(CCCN1CCC(O)(c2ccc(Cl)cc2)CC1)c1ccc(F)cc1 [Haloperidol, haloperidol]
WT nH (hill coefficient) [1]: 1.3 ± 0.1
Y652A-hERG nH (hill coefficient) (Y652A-hERG): 1 ± 0.04
Y652A-hERG ∆IC50 (Y652A-hERG): 31.4
